Experiments:
[1] = system: HBV rcDNA in AML12-HBV10 cells; experiment: Inhibition of rcDNA in AML12-HBV10 cells (bDNA assay), checkerboard, MacSynergy II; type: cell-based, HBV (mouse hepatocyte cell line); settings: Hepatitis B virus, AML12HBV10, in Mus musculus, expected from additive interaction; Compound 3 0.3125 μM; ETV μM in c0 of the row
Description: The two inhibitors were tested both singly as well as in combinations in a checkerboard fashion such that each concentration of inhibitor A was combined with each concentration of inhibitor B to determine their combination effects on inhibition of rcDNA production.

[2] = system: D type HBV in primary human hepatocytes (PHH); experiment: HBV DNA in culture supernatants of HBV-infected primary human hepatocytes (qPCR), MacSynergy; type: cell-based; settings: COMPOUND 25 0.00 nM
Description: The mouse liver perfusion was applied to isolate PHHs. The isolated hepatocytes were further purified by Percoll. The cells were resuspended with culture media and seeded into the 96-well plates (6×10^4 cell/well) or 48-well plates (1.2×10^5 cell/well). The PHHs were infected with a D type HBV one day post seeding (day 1).
On day 2, the test compounds were diluted and added into the cell culture plates. The culture media containing the compounds were refreshed every other day. The cell culture supernatants were collected on day 8 for the HBV DNA and antigen determinations.
The compounds were tested at 7 concentrations, 3-fold dilution, in triplicate.
Two compounds were tested at 5×5 matrix, in triplicate plates.
DNA in the culture supernatants harvested on days 8 were isolated with QIAamp 96 DNA Blood Kit (Qiagen-51161). For each sample, 100 μl of the culture supernatants was used to extract DNA. The DNA was eluted with 100 μl, 150 μl or 180 μl of AE. HBV DNA in the culture supernatants was quantified by qPCR. The combination effect was analyzed by the MacSynergy software. The primers are described below.

hepatitis B virus (HBV) = experiment: Serum HBsAg in humanized liver chimeric mouse model of chronic HBV infection (GS HBsAg EIA 3.0); type: in vivo; settings: Compound 3 oral 100 mg/kg twice daily, SIRNA-NP intravenous 3 mg/kg every 2 weeks, ETV oral 1.2 μg/kg daily, pegIFN α-2a subcutaneous 30 μg/kg twice a week
Description: This work was conducted in a well-established humanized liver chimeric mouse model of chronic hepatitis B virus (HBV) infection (Tsuge et al., Hepatology, 42(5), 1046-54 (2005)). A persistent level of HBV infection was established in the animals prior to the treatment phase which started at Day 0.
The anti-HBV effects were assessed based on serum HBsAg levels using the GS HBsAg EIA 3.0 enzyme linked immunosorbent assay kit from Bio-Rad Laboratories as per manufacturer instructions; and serum HBV DNA levels measured from total extracted DNA using a quantitative PCR assay (primer/probe sequences from Tanaka et al., Journal of Medical Virology, 72, 223-229 (2004)).

SMILES: CC[C@@H](C)NS(=O)(=O)c1ccc(F)c(C(=O)Nc2ccc(F)c(F)c2)c1 [Compound 3]
- inhibition at 0.3125 µM [1]: 71%
- AVERAGE % INHIBITION, HBV DNA ([2]; COMPOUND 3 61.73 nM): −28.13%
- AVERAGE % INHIBITION, HBV DNA ([2]; COMPOUND 3 185.19 nM): −25.93%
- AVERAGE % INHIBITION, HBV DNA ([2]; COMPOUND 3 555.56 nM): −3.32%
- AVERAGE % INHIBITION, HBV DNA ([2]; COMPOUND 3 1666.67 nM): 25.94%
- AVERAGE % INHIBITION, HBV DNA ([2]; COMPOUND 3 5000.00 nM): 74.78%

SMILES: C=C1[C@H](CO)[C@@H](O)C[C@@H]1n1cnc2c(=O)[nH]c(N)nc21 [ETV, Entecavir]
- Serum HBsAg (± SEM) (hepatitis B virus (HBV); Day 0 (start of treatment)): 2649 ± 282 IU/mL
- Serum HBsAg (± SEM) (hepatitis B virus (HBV); Day 21): 2975 ± 629 IU/mL
